{
  "source": "ChEMBL document CHEMBL1201862",
  "about": "“PubChem BioAssay data set” (2004)",
  "key": {"Bcl-2-like protein 1": {"biological_target": "Bcl-2-like protein 1 (Homo sapiens, UniProt Q07817)", "sequence (Q07817 whole entry)": "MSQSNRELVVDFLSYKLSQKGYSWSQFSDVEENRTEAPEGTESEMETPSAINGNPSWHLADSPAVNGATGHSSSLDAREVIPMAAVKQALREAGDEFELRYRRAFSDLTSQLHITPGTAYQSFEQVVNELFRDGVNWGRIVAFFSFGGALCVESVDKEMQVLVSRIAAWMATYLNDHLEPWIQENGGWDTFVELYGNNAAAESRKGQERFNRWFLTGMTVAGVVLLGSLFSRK", "test": "blockers of BCLXL peptide binding – biochemical, fluorescence polarization, 1536-well, selectivity assay for MCL1 inhibitor project, dose response (AID 2218)"}, "[1]": {"biological_target": "T1, Induced myeloid leukemia cell differentiation protein Mcl-1 (Homo sapiens, UniProt Q07820)", "T1 sequence (Q07820 whole entry)": "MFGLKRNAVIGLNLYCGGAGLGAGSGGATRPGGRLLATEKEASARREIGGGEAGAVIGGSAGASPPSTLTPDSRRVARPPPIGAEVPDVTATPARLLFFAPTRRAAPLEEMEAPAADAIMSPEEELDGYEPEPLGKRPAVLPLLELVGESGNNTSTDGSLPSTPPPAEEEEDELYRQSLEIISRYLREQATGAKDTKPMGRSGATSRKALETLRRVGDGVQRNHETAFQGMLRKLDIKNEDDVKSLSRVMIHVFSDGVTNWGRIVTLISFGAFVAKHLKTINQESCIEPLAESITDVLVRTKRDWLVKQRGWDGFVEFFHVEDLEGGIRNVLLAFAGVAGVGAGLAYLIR", "test": "blockers of MCL1 binding to BIM peptide – biochemical, fluorescence polarization, BIM-BH3 peptide, 1536-well, dose response (AID 2217)"}, "[2]": {"biological_target": "T1, Induced myeloid leukemia cell differentiation protein Mcl-1", "assay_type": "functional"}, "NADPH oxidase 1": {"biological_target": "NADPH oxidase 1 (Homo sapiens, UniProt Q9Y5S8)", "sequence (Q9Y5S8 whole entry)": "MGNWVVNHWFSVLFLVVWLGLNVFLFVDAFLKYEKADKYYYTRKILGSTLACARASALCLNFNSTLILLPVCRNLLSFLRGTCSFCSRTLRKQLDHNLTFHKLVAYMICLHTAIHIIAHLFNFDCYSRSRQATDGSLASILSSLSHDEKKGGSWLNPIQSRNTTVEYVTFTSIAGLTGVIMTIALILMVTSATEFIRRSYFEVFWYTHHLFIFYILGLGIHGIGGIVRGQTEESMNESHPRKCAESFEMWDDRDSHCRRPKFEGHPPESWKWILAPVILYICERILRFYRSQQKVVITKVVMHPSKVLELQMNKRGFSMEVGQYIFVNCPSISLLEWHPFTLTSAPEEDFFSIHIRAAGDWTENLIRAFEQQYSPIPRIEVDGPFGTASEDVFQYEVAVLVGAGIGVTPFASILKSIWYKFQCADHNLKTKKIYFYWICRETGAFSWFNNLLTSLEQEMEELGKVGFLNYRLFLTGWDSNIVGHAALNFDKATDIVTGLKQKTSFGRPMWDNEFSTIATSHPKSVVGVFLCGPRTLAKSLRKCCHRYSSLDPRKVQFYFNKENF", "assay_type": "functional, cell-based"}, "[3]": {"test": "alpha-synuclein stem-loop luciferase translation blockers – H4 neuroglioma cells, luminescence, confirmation (AID 1988)", "assay_type": "functional, cell-based"}, "[4]": {"test": "Luminescence Cell-Based Dose Response HTS to Identify Inhibitors of 5'UTR Stem-Loop Driven Prion Protein mRNA Translation in H4 Neuroglioblastoma Cells. [Related pubchem assays: 1827 (Project Summary), 1813 (Primary HTS)]", "assay_type": "functional"}, "[5]": {"test": "luciferase reporter signal suppression in cells – H4 neuroglioma cells, luminescence, dose response (AID 1990)", "assay_type": "functional, cell-based"}, "Vero": {"test_system": "Vero", "test": "cells", "assay_type": "functional, cell-based", "details": "Chlorocebus sabaeus"}, "[6]": {"test": "luciferase reporter signal reduction – luminescence, H4-C neuroglioblastoma cells, dose response (AID 2458);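 also: H4 neuroglioblastoma cells stably carrying a luciferase reporter gene fusion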", "assay_type": "functional, cell-based"}, "cells": {"test": "cells", "assay_type": "functional, cell-based"}, "[7]": {"test": "Luminescence-based dose response cell-based high throughput screening assay for cytotoxic compounds using the IEC-6 intestinal epithelial cell line. [Related pubchem assays: 1858 (Summary AID.), 1825 (Counterscreen.), 1907 (Confirmation screen.)]", "assay_type": "functional"}, "[8]": {"test": "alpha-synuclein stem-loop translation blockers – luminescence, H4 neuroglioblastoma cells, dose confirmation, confirmation (AID 2454);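 also: potency for inhibition of the luciferase signal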", "assay_type": "functional, cell-based"}, "[9]": {"test": "viability loss in Vero cells – cytotoxicity control for Vif-APOBEC3G degradation inhibitor project, dose response (AID 1117358)", "assay_type": "functional", "details": "Vero"}, "[10]": {"test": "Dd2 parasite growth inhibition in erythrocytes – SYBR Green, dry powder samples, set 4, dose response (AID 1159572)", "assay_type": "functional, cell-based"}, "[11]": {"test": "PAX5 cellular inhibition readout – cell-based, plate reader, dry powder samples, selectivity assay for PAX8 inhibitor project, dose response (AID 743047);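 also: HEK293 cells carrying a Pax5 driven CD19 promoter luciferase reporter; potency of inhibitors that lower reporter luminescence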", "assay_type": "functional"}, "[12]": {"test": "PAX8-dependent cell viability loss – plate reader, dry powder, dose response (AID 743049)", "assay_type": "functional, cell-based"}, "[13]": {"test": "COV434 cell viability loss – plate reader, dry powder, SA7, cytotoxicity control for PAX8 inhibitor project, dose response (AID 743145)", "assay_type": "functional, cell-based"}, "[14]": {"test": "inhibitors acting on PAX2 in cells – cell-based, plate reader, dry powder samples, selectivity assay for PAX8 inhibitor project, dose response (AID 743048);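 also: HEK293 cells carrying a WT1 promoter luciferase reporter driven by expressed Pax2; potency is for inhibition of Pax2 driven reporter signal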", "assay_type": "functional"}, "[15]": {"test": "OV-90 cell viability loss – plate reader, dry powder, SA8, PAX8 inhibitor project, dose response (AID 743149)", "assay_type": "functional, cell-based"}, "[16]": {"biological_target": "Heat shock protein HSP 90-alpha (Homo sapiens, UniProt P07900)", "test": "Luminescence-based dose response biochemical high throughput screening assay for inhibitors of the Heat Shock Protein 90 (HSP90). [Related pubchem assays: 1831 (Summary AID.), 1846 (Confirmation screen.), 1789 (Primary screen.)]"}, "[17]": {"biological_target": "T2, Luciferin 4-monooxygenase (Photuris pensylvanica, UniProt Q27757)", "T2 sequence (Q27757 whole entry)": "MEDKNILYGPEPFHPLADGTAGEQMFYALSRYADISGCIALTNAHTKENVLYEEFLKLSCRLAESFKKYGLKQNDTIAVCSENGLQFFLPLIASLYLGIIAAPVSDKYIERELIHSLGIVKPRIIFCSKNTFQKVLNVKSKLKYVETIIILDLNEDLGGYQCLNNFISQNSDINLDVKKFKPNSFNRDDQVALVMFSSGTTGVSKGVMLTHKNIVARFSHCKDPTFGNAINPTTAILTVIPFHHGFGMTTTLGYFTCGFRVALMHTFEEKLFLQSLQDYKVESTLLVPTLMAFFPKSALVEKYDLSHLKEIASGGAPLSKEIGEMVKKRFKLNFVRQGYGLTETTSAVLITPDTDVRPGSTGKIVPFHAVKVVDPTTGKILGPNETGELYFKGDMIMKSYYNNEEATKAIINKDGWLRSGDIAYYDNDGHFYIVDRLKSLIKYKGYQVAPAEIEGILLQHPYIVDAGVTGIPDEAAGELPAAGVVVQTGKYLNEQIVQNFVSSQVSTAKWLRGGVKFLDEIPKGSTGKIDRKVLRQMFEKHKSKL", "test": "inhibition of Cell Titer Glo luciferase signal – biochemical, luminescence, cherry-picks, counter-screen for HSF-1 reporter inhibitor project, dose response (AID 588847)"}},
  "note": "The source made the active and inactive calls.",
  "data": [
    {"smiles": "O=c1c2c3c(sc2[nH]c(=S)n1Cc1ccco1)CCC3", "values": [
      {"measurement": "IC50", "setting": "Bcl-2-like protein 1", "result": "> 109 µM (not active)"},
      {"measurement": "IC50", "setting": "[1]", "result": "77.8 µM (not active)"},
      {"measurement": "IC50", "setting": "[2]", "result": "2.1 µM (active)"}
    ]},
    {"smiles": "O=C(Nc1ccc(OCc2ccccc2)cc1)Nc1ccc([N+](=O)[O-])cc1", "values": [
      {"measurement": "IC50", "setting": "NADPH oxidase 1", "result": "> 17 µM (not active)"}
    ]},
    {"smiles": "CN(C)c1ccc(C(=O)c2ccc(N(C)C)c3ccccc23)cc1", "values": [
      {"measurement": "EC50", "setting": "[3]", "result": "< 0.1 µM (active)"},
      {"measurement": "EC50", "setting": "[4]", "result": "< 0.1 µM (active)"},
      {"measurement": "EC50", "setting": "[5]", "result": "< 0.1 µM (active)"},
      {"measurement": "IC50", "setting": "Vero", "result": "> 25 µM (active)"},
      {"measurement": "EC50", "setting": "[6]", "result": "0.103 µM (active)"},
      {"measurement": "EC50", "setting": "cells", "result": "0.112 µM (active)"},
      {"measurement": "IC50", "setting": "[7]", "result": "0.146 µM (active)"},
      {"measurement": "EC50", "setting": "[8]", "result": "0.118 µM (active)"}
    ]},
    {"smiles": "O=C(c1ccco1)c1cn(Cc2ccccc2)c2ccccc12", "values": [
      {"measurement": "CC50", "setting": "[9]", "result": "> 40 µM (active)"}
    ]},
    {"smiles": "COc1ccc2c3c([nH]c2c1)[C@H](CO)N(C(C)=O)CC31CCN(C(=O)c2ccc3c(c2)OCO3)CC1", "values": [
      {"measurement": "AC50", "setting": "[10]", "result": "6.93 µM (active)"}
    ]},
    {"smiles": "COc1cccc(C#Cc2ccc([C@@H]3[C@@H](C#N)N(C(=O)C4CCCCC4)[C@@H]3CO)cc2)c1", "values": [
      {"measurement": "AC50", "setting": "[11]", "result": "30.5 µM (active)"},
      {"measurement": "AC50", "setting": "[12]", "result": "25.8 µM (active)"},
      {"measurement": "AC50", "setting": "[13]", "result": "69.6 µM (active)"},
      {"measurement": "AC50", "setting": "[14]", "result": "19.9 µM (active)"},
      {"measurement": "AC50", "setting": "[15]", "result": "57.3 µM (active)"}
    ]},
    {"smiles": "Cc1c(-c2nc(-c3ccc(C(C)(C)C)cc3)no2)n(C)oc1=O", "values": [
      {"measurement": "IC50", "setting": "[16]", "result": "> 0.003 µM (active)"},
      {"measurement": "AC50", "setting": "[17]", "result": "> 52 µM (inactive)"}
    ]}
  ]
}
